From paper PMC4601023, “Novel anticancer agent, SQAP, binds to focal adhesion kinase and modulates its activity” (Scientific Reports, 2015)
Values belong to the compound of their own block, whether it stands above or below them.

Experiments:
[1] = system: TSP-1 expression in endothelial cells; parameters: method as in PMID 14739779; conditions: cited from earlier work
[2] = system: breast CSCs; parameters: method as in PMID 25187396; conditions: in combination with radiotherapy; cited from earlier work
[3] = biological target: T1, SCP-2 (400–547) (Homo sapiens, UniProt P22307); assay: SPR analysis, immobilized His-tagged SCP-2 (400-547); type: binding
T1 construct: DNA encoding SCP-2 (400–547) was amplified; made in house; host or cells: E. coli Rosetta 2 (DE3) pLysS
Description: (§1) SPR was utilized as an independent confirmation of the kinetic parameters between SQAP and the putative binding proteins. […] The recombinant proteins were then expressed in Escherichia coli and purified to homogeneity. In addition, full length, His-tagged ADRM1 and GST-tagged HR23B (GST-HR23B) were also used. The proteins were first immobilized on a CM5 sensor chip of the SPR biosensor (Biacore 3000). For GST-HR23B analysis, a GST protein was additionally immobilized and used as a control in order to eliminate possible nonspecific binding of SQAP. SQAP samples at different concentrations were then injected over the proteins immobilized on the sensor chip. As a negative control we used sulfoquynovosylpropanediol (SQP), which lacks the fatty acid moiety of SQAP (Fig. 1). […]
(§2) The binding kinetics of SCP-2, MFE-2, ADRM1, HR23B and FAK with SQAP and SQP were analyzed on a Biacore 3000 instrument (GE Healthcare, Little Chalfont, UK). […] The buffer of purified peptides was exchanged to HBS-P (150 mM NaCl, 0.005% Surfactant P20, 10 mM HEPES-NaOH pH 7.4) using a PD 10 column (GE Healthcare, Little Chalfont, UK) and the concentrations were quantified using DC protein assay kit (Bio-Rad Laboratories, Hercules, CA, USA). […] Kinetic parameters were determined by analyzing the data using BIAevaluation 4.1 software (GE Healthcare, Little Chalfont, UK).

[4] = biological target: T2, MFE-2 (598–736) (Homo sapiens, UniProt P51659); assay: SPR analysis, immobilized His-tagged MFE-2 (598-736); type: binding
T2 construct: For MFE-2 (598–736) DNA was amplified; made in house; host or cells: E. coli Rosetta 2 (DE3) pLysS
Description: as §1, §2

[5] = biological target: T3, ADRM1 (Homo sapiens, UniProt Q16186); assay: SPR analysis, immobilized full length His-ADRM1; type: binding
T3 construct: ADRM1 and HR23B human full length proteins were purchased; His-tag; purchased ATgen (Gyeonggi-do, Korea)
Description: as §1, §2

[6] = biological target: T4, HR23B (Homo sapiens, UniProt P54727); assay: SPR analysis, immobilized GST-HR23B (GST control subtracted); type: binding; conditions: no kinetic analysis
T4 construct: ADRM1 and HR23B human full length proteins were purchased; purchased Abnova (Taipei, Taiwan)
Description: as §1, §2

[7] = biological target: T5, FAK (910–1052) (Homo sapiens, UniProt Q05397); assay: SPR analysis, immobilized His-tagged FAK (910-1052); type: binding
T5 construct: For FAK (910–1052) DNA was amplified; made in house; host or cells: E. coli BL21 (DE3)
Description: as §1, §2

[8] = system: FAK phosphorylation (Y397, Y925) in A549 cells; assay: FAK phosphorylation level in A549, Western blotting; type: cell-based, human; conditions: A549, fibronectin 10 μg/mL, 1 h treatment
Protocol: A549 cells were incubated in a serum-free medium for 48 h in 60 mm dishes (IWAKI, Tokyo, Japan). Then 10 μM SQAP, SQMG or SQP was added and incubated for 30 min followed by addition of fibronectin 10 μg/mL (Sigma, St. Louis, MI, USA) and incubation for another 30 min. FAK phosphorylation level was analyzed by Western blotting as described in the next section.
(§3) Cells were harvested and solubilized in RIPA buffer (20 mM Tris-HCl, pH 7.5, 1% Sodium deoxycholate, 150 mM NaCl, 5 mM EDTA, 1% Triton X-100, 0.1% SDS, 0.1%, 1 mM PMSF, 1 mM vanadate and 1 μg/mL leupeptin). Protein quantification was determined using the DC protein assay kit (Bio-Rad, Hercules, CA, USA). A total of 15 μg of each protein sample were separated by SDS–PAGE gels and blotted onto polyvinylidene difluoride membranes (Merck, Kenilworth, NJ, US). After blocking for 1 h with Blocking-One (Nacalai Tesque, Kyoto, Japan), proteins were detected by incubating the membranes with the primary antibody at 4 °C overnight (anti-Y397 2:2000, anti-Y925 5:2000 and anti-FAK 0.5:2000) followed by incubation with horseradish peroxidase-conjugated secondary antibodies at room temperature for 1 h (anti-mouse 0.5:2000 and anti-rabbit 0.4:2000).

[9] = system: FAK phosphorylation (Y397, Y925) in HUVEC cells; assay: FAK phosphorylation level in HUVEC, Western blotting; type: cell-based, human; conditions: VEGF 50 ng/mL, 1 h
Protocol: HUVEC cells were incubated for 20 h in serum-free medium in 60 mm dishes. SQAP, SQMG or SQP was added and incubated for 30 min followed by addition of 50 ng/mL VEGF (RD systems, Minneapolis, MN. USA) and incubation for another 30 min. FAK phosphorylation level was analyzed by Western blotting as described in the next section.
as §3

[10] = system: Akt phosphorylation at S473 in HUVEC; assay: Akt phosphorylation in HUVEC, Western blotting; type: cell-based, human; conditions: treated for 21 h, 10 µM
Description: Furthermore, we looked at FAK signaling pathway to validate our results. Paxillin binds to FAK 919–938 residues which is a sequence contained within the region where SQAP is predicted to bind. Binding between paxillin and FAK results in paxillin phosphorylation at Y118[35][36]. Thus, we examined paxillin phosphorylation. […] Additionally, we studied Akt phosphorylation at S473 on account of FAK is a known factor in control of Akt activity. We observed that Akt phosphorylation was diminished when treated with SQAP or SQMG for 21 h (see Supplementary Fig. S3).
as §3, with “0.4:2000). […]” for “0.4:2000).”

[11] = system: lung and colon adenocarcinomas; parameters: method as in PMID 9020475, PMID 21115885; conditions: transplanted in nude mice, in combination with X-irradiation; cited from earlier work
[12] = biological target: VEGF (Homo sapiens, UniProt P15692); conditions: cited from earlier work
[13] = system: TSP-1 gene; parameters: method as in PMID 22587436; conditions: diverse cell lines including A549 and HUVEC; cited from earlier work
[14] = system: Tie2 gene; parameters: method as in PMID 18380795; conditions: cited from earlier work

Chain of VEGF (P15692 whole entry, species assumed): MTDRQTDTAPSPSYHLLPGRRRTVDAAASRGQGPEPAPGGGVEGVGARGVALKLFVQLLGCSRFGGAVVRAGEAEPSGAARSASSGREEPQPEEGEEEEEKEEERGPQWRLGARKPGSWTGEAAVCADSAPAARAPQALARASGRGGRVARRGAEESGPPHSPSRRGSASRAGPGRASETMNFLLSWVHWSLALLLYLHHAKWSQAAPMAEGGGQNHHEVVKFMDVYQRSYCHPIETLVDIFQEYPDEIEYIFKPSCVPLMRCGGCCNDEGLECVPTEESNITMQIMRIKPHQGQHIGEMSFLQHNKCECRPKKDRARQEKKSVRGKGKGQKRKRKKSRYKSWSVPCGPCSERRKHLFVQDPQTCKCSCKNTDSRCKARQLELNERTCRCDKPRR
T2 sequence (P51659 598-736): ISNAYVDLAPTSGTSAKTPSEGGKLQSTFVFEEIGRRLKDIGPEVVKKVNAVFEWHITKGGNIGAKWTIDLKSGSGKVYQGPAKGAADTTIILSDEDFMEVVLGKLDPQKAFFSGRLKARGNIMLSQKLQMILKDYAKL
T3 sequence (Q16186 whole entry): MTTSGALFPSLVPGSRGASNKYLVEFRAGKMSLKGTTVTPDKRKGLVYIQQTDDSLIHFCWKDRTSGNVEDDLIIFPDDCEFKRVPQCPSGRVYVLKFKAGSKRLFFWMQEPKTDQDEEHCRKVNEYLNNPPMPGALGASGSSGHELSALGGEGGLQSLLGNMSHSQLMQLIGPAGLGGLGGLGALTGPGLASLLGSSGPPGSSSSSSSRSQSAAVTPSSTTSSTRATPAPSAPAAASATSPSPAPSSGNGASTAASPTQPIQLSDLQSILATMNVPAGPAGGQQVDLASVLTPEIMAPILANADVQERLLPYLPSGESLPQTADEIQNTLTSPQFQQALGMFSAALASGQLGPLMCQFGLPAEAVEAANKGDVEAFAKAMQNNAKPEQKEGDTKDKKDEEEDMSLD
T4 sequence (P54727 whole entry): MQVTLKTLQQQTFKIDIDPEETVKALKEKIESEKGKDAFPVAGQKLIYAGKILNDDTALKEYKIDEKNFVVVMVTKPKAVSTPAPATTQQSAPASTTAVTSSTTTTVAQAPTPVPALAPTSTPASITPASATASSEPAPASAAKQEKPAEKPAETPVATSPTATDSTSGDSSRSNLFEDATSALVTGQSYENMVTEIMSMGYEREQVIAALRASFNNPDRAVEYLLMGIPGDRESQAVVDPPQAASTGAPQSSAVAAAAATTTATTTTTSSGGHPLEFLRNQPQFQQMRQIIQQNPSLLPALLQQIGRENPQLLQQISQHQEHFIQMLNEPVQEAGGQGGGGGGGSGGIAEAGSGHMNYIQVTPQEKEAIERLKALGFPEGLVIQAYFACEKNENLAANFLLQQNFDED
T5 sequence (Q05397 910-1052): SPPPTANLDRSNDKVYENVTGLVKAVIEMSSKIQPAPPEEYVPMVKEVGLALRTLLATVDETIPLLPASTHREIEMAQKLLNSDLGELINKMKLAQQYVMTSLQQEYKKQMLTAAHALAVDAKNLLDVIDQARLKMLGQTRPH
T1 sequence (P22307 400-547): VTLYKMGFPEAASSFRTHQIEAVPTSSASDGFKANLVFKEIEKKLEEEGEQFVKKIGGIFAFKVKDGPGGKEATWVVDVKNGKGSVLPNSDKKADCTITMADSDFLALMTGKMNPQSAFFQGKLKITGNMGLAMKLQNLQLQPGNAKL

Compound: O=c1cc(N2CCOCC2)oc2c(-c3ccccc3)cccc12 [LY 294002]
TSP-1 expression levels [1]: upregulated

Compound: CS(=O)(=O)c1cccc(CNc2nc(Nc3ccc4c(c3)CCC(=O)N4)ncc2C(F)(F)F)c1 [PF573228]
formation of clumps of breast CSCs [2]: block the formation of clumps

binding to SCP-2 (SPR response) [3]: neither bound | binding to MFE-2 (SPR response) [4]: neither bound | binding to ADRM1 (SPR response) [5]: neither bound | binding to HR23B (SPR response) [6]: neither bound | binding to FAK (SPR response) [7]: neither bound
Compound: O=S(=O)(O)C[C@H]1O[C@H](OCCCO)[C@H](O)[C@@H](O)[C@@H]1O [SQP, sulfoquynovosylpropanediol, reference compound]
phosphorylation of FAK at Y397 and Y925 [8]: failed to inhibit

Compound: sulfoquinovosyl monoacylglyceride [SQMG]
phosphorylation level of FAK at Y397 and at Y925 after VEGF stimulation [9]: can inhibit | Akt phosphorylation at S473 [10]: diminished | tumor growth [11]: significantly inhibited | binding to VEGF [12]: bind to VEGF | TSP-1 gene expression [13]: upregulation | Tie2 gene expression [14]: downregulation
